Entries after “also recorded” stand apart in the source; their conditions may differ. Structures can show the parent of a compound that is named as a salt. Where two headings read alike, the source gives them in different places.
How the values were obtained:
[1] = dynamic vapor sorption (DVS); format: physicochemical; settings: for hygroscopicity by DVS: 0%-90% RH; for hysteresis: at 0% RH
Experimental: Approximately 10 mg of sample was placed into a glass vapor sorption balance pan and loaded into a DVS-1 dynamic vapor sorption balance by Surface Measurement Systems. […] After completion of the sorption cycle, the sample was dried using the same procedure, from 90% RH down to 0% RH. The weight change during the sorption/desorption cycles were plotted, permitting the hygroscopic nature of the sample to be determined.

[2] = solvent solubility screen; settings: for solubility: 40 °C
[3] = 1 week stability studies (HPLC purity, XRPD, appearance); format: physicochemical; settings: for HPLC Purity T = 0 / Observations T = 0: start of stability study
Experimental: Each salt formed was exposed to environments of 40° C./75% RH (open vial), elevated temperature (80° C., open vial) and ambient light (about 22° C. in a closed vial), for 1 week to assess both chemical and physical stability. Resulting solids were analyzed by X-ray powder diffraction (XRPD) to establish if any changes had occurred and by HPLC to determine purity.

[4] = hydration studies, slurries in IPA/water mixtures; format: physicochemical; settings: for Observations, hydration study: IPA/water
[5] = 1,2-dichloroethene, organic solvent or mixture
[6] = 2-MeTHF, organic solvent or mixture
[7] = 2-butanol, organic solvent or mixture
[8] = 2-propanol, organic solvent or mixture
[9] = 2-propanol:water (10%), organic solvent or mixture
[10] = acetone, organic solvent or mixture
[11] = acetone:water (5%), organic solvent or mixture
[12] = acetone:water (20%), organic solvent or mixture
[13] = acetonitrile, organic solvent or mixture
[14] = cyclohexane, organic solvent or mixture
[15] = dimethylacetamide, organic solvent or mixture
[16] = dimethylsulfoxide, organic solvent or mixture
[17] = ethanol, organic solvent or mixture
[18] = ethyl acetate, organic solvent or mixture
[19] = heptane, organic solvent or mixture
[20] = isopropyl acetate, organic solvent or mixture
[21] = methanol, organic solvent or mixture
[22] = methyl acetate, organic solvent or mixture
[23] = methyl ethyl ketone, organic solvent or mixture
[24] = methyl isobutyl ketone, organic solvent or mixture
[25] = tert-butyl methyl ether, organic solvent or mixture
[26] = tetrahydrofuran, organic solvent or mixture
[27] = toluene, organic solvent or mixture
[28] = Ambient (light, about 22° C., closed vial)
[29] = between 70% and 0% RH, dihydrochloride monohydrate
[30] = 40° C./75% RH, open vial, dihydrochloride monohydrate
[31] = 40° C./75% RH, dihydrochloride monohydrate
[32] = 80° C., open vial, dihydrochloride monohydrate
[33] = 80° C., dihydrochloride monohydrate
[34] = Ambient (light, about 22° C., closed vial), dihydrochloride monohydrate
[35] = ambient, dihydrochloride monohydrate

CN1CCC2(CC1)NCC(=O)N2Cc1ccccc1.Cl [HCl mono-salt, 1-benzyl-8-methyl-1,4,8-triazaspiro-[4.5]-decan-2-one monohydrochloride]
post-DVS XRPD analysis [1]: not consistent with any of the forms previously observed
hygroscopicity by DVS ([1]; monohydrochloride): very hygroscopic above 70% RH; also recorded: deliquesced at high RH
hysteresis [1]: 7.3%
water uptake, sorption cycle ([1]; at 70% RH): 2.55%
water uptake, sorption cycle ([1]; at 90% RH): 68.57%
mass decrease, desorption cycle ([1]; between 10% and 0% RH): 6.10%
mass decrease, desorption cycle ([1]; between 90% and 50% RH): 54.25%
water uptake, sorption cycle ([1]; until 60% RH): about 0.27%
solubility [2, 5]: < 10000 µg/mL
solubility [2, 6]: < 10000 µg/mL
Solubility at 40° C. ([2]; 2-Propanol:water (10%)): very high solubility
solubility [2, 7]: < 10000 µg/mL
solubility [2, 8]: < 10000 µg/mL
solubility [2, 9]: > 200000 µg/mL
Solubility at 40° C. ([2]; Acetone:Water (5%)): Some solubility
Solubility at 40° C. ([2]; Acetone:Water (20%)): very high solubility
Solubility at 40° C. ([2]; Dimethylacetamide): Some solubility
Solubility at 40° C. ([2]; Dimethylsulfoxide): high solubility
Solubility at 40° C. ([2]; Ethanol): Some solubility
Solubility at 40° C. ([2]; Methanol): very high solubility
Solubility at 40° C. ([2]; Water): very high solubility
solubility [2, 10]: < 10000 µg/mL
solubility [2, 11]: ~20000 µg/mL
solubility [2, 12]: > 200000 µg/mL
solubility [2, 13]: < 10000 µg/mL
solubility [2, 14]: < 10000 µg/mL
solubility [2, 15]: ~10000 µg/mL
solubility [2, 16]: ~105000 µg/mL
solubility [2, 17]: ~20000 µg/mL
solubility [2, 18]: < 10000 µg/mL
solubility [2, 19]: < 10000 µg/mL
solubility [2, 20]: < 10000 µg/mL
solubility [2, 21]: > 200000 µg/mL
solubility [2, 22]: < 10000 µg/mL
solubility [2, 23]: < 10000 µg/mL
solubility [2, 24]: < 10000 µg/mL
solubility [2, 25]: < 10000 µg/mL
solubility [2, 26]: < 10000 µg/mL
solubility [2, 27]: < 10000 µg/mL
solubility ([2]; water): > 200000 µg/mL
loss in purity by HPLC during stability studies ([3]; 1 week, all conditions): No significant loss in purity
polymorphic form by XRPD after 1 week ([3]; 40° C./75% RH): deliquesced
HPLC Purity T = One week ([3]; 40° C./75% RH, open vial): 99.4%
Observations T = One week ([3]; 40° C./75% RH, open vial): Clear liquid
polymorphic form by XRPD after 1 week ([3]; 80° C.): retained its polymorphic form
HPLC Purity T = One week ([3]; 80° C., open vial): 99.5%
Observations T = One week ([3]; 80° C., open vial): Off-white
HPLC Purity T = One week [3, 28]: 98.6%
Observations T = One week [3, 28]: White solid
polymorphic form by XRPD after 1 week ([3]; ambient): retained its polymorphic form
HPLC Purity T = 0 [3]: 98.8%
Observations T = 0 [3]: White solid

CN1CCC2(CC1)NCC(=O)N2Cc1ccccc1 [HCl Di-Salt Hydrate (Form 2), 1-benzyl-8-methyl-1,4,8-triazaspiro-[4.5]-decan-2-one dihydrochloride monohydrate]
hygroscopicity by DVS ([1]; dihydrochloride monohydrate): less hygroscopic than Form 1 between 0% and 50% RH, but more hygroscopic than Form 1 by DVS analysis >50% RH; also recorded: hygroscopic above 50% RH
hysteresis [1]: about 0.4%
water uptake, sorption cycle ([1]; at 50% RH (0% to 50% RH), dihydrochloride monohydrate): about 0.2%
water uptake, sorption cycle ([1]; at 80% RH, dihydrochloride monohydrate): about 9.9%
mass decrease, desorption cycle [1, 29]: 6.77%
post-DVS XRPD analysis ([1]; dihydrochloride monohydrate): increase in crystallinity
Observations, hydration study ([4]; 5% water, water activity approx. 0.5): White suspension
Observations, hydration study ([4]; 10% water, water activity approx. 0.7): White suspension
Observations, hydration study ([4]; 40% water, water activity approx. 0.9): White suspension
form change by XRPD on stirring in IPA/water mixtures ([4]; various IPA/water mixtures, 24 hours): no form change occurred
Observations T = One week ([3]; 40° C./75% RH, open vial): White solid
HPLC Purity T = One week [3, 30]: 99.8%
polymorphic form by XRPD after 1 week [3, 31]: increase in crystallinity
Observations T = One week [3, 32]: white to off-white/orange; also recorded: Orange solid
polymorphic form by XRPD after 1 week [3, 33]: did not indicate significant changes in polymorphic form
Observations T = One week [3, 28]: White solid
HPLC Purity T = One week [3, 34]: 99.5%
polymorphic form by XRPD after 1 week [3, 35]: did not indicate significant changes in polymorphic form
Observations T = 0 [3]: White solid
HPLC Purity T = 0 ([3]; dihydrochloride monohydrate): 99.4%

CN1CCC2(CC1)NCC(=O)N2Cc1ccccc1 [HCl Di-Salt Hydrate, Form 1, 1-benzyl-8-methyl-1,4,8-triazaspiro-[4.5]-decan-2-one dihydrochloride monohydrate]
hygroscopicity by DVS ([1]; dihydrochloride monohydrate): hygroscopic above 50% RH
final dry mass higher than the initial dry mass ([1]; at 0% RH following sorption and de-sorption profile): 0.13%
largest hysteresis, difference in water uptake between sorption and de-sorption profile ([1]; at 50% RH): 0.78%
water uptake, sorption cycle ([1]; at 90% RH, dihydrochloride monohydrate): about 8.26%
mass decrease, desorption cycle [1, 29]: about 2.33%
post-DVS XRPD analysis ([1]; dihydrochloride monohydrate): No significant differences in polymorphic form
solubility [2, 5]: < 10000 µg/mL
solubility [2, 6]: < 10000 µg/mL
Solubility at 40° C. ([2]; 2-Propanol:water (10%)): Moderate solubility
solubility [2, 7]: < 10000 µg/mL
solubility [2, 8]: < 10000 µg/mL
solubility [2, 9]: ~25000 µg/mL
Solubility at 40° C. ([2]; Acetone:Water (20%)): High solubility
Solubility at 40° C. ([2]; Dimethylsulfoxide): very high solubility
Solubility at 40° C. ([2]; Methanol): Moderate solubility
Solubility at 40° C. ([2]; Water): very high solubility
solubility [2, 10]: < 10000 µg/mL
solubility [2, 11]: < 10000 µg/mL
solubility [2, 12]: ~85000 µg/mL
solubility [2, 13]: < 10000 µg/mL
solubility [2, 14]: < 10000 µg/mL
solubility [2, 15]: < 10000 µg/mL
solubility [2, 16]: > 200000 µg/mL
solubility [2, 17]: < 10000 µg/mL
solubility [2, 18]: < 10000 µg/mL
solubility [2, 19]: < 10000 µg/mL
solubility [2, 20]: < 10000 µg/mL
solubility [2, 21]: ~25000 µg/mL
solubility [2, 22]: < 10000 µg/mL
solubility [2, 23]: < 10000 µg/mL
solubility [2, 24]: < 10000 µg/mL
solubility [2, 25]: < 10000 µg/mL
solubility [2, 26]: < 10000 µg/mL
solubility [2, 27]: < 10000 µg/mL
solubility ([2]; water): > 200000 µg/mL
Observations T = One week ([3]; 40° C./75% RH, open vial): White solid
HPLC Purity T = One week [3, 30]: 99.0%
polymorphic form by XRPD after 1 week [3, 31]: No significant changes in polymorphic form
HPLC Purity T = One week [3, 32]: 99.4%
Observations T = One week [3, 32]: Off-white
polymorphic form by XRPD after 1 week [3, 33]: No significant changes in polymorphic form
Observations T = One week [3, 28]: White solid
HPLC Purity T = One week [3, 34]: 99.4%
polymorphic form by XRPD after 1 week [3, 35]: No significant changes in polymorphic form
Observations T = 0 [3]: White solid
HPLC Purity T = 0 ([3]; dihydrochloride monohydrate): 99.1%

— patent publication US11370791B2, “Solid polymorphs of a FLNA-binding compound and its hydrochloride salts” (Pain Therapeutics, Inc., priority 2019, dated 2022)
